IC50 data for seven compounds are collected here from ChEMBL document CHEMBL3808322, “Structure-based discovery of novel 4,5,6-trisubstituted pyrimidines as potent covalent Bruton's tyrosine kinase inhibitors” (Bioorg Med Chem Lett, 2016).

Assay [1] addresses T1, Tyrosine-protein kinase BTK (Homo sapiens, UniProt Q06187). Kind of assay: Inhibition of BTK (unknown origin).
Assay [2] has as its target T1, Tyrosine-protein kinase BTK. Kind of assay: Inhibition of BTK (unknown origin) assessed as reduction in phosphorylation of coumarin and fluorescein-labeled FRET peptide substrate incubated for 1 hr by Z-Lyte assay.

What is called IC50 is the midpoint of a concentration-inhibition curve.

Each structure is given as a SMILES string.

T1 sequence (Q06187 whole entry): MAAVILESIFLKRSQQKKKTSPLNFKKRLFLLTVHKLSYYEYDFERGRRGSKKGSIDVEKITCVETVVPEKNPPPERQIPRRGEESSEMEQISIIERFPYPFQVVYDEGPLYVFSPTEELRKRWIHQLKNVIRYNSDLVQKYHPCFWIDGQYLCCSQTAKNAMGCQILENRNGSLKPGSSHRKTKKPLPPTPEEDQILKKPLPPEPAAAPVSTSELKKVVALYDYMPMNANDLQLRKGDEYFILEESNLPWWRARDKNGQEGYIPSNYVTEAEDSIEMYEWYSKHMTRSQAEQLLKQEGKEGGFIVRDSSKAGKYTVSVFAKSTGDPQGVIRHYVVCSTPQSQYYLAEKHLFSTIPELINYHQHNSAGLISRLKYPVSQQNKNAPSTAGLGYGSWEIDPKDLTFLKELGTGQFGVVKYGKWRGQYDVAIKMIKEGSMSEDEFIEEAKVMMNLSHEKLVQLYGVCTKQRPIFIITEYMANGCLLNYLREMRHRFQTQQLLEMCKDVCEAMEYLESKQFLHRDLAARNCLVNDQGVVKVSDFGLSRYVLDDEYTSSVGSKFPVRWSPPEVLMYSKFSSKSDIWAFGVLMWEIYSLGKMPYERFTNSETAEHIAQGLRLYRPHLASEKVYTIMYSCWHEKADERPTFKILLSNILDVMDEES

`C=CC(=O)N1CCC[C@@H](n2c(=O)n(-c3ccc(Oc4ccccc4)cc3)c3c(N)ncnc32)C1` yielded an IC50 in assay [1] of 0.0239 µM.

Regarding `C=CC(=O)N1CCC[C@@H](Nc2ncnc(N)c2C(=O)c2ccc(Oc3ccccc3)cc2)C1`, the IC50 in assay [2] was 0.07 µM.

`C=CC(=O)N1CCN(c2ncnc(N)c2C(=O)c2ccc(Oc3ccccc3)cc2)CC1`: the IC50 in assay [2] was 0.88 µM.

Turning to `C=CC(=O)N1CCC[C@@H](Nc2ncnc(N)c2C(=O)c2ccc(OCC)cc2)C1`, the IC50 in assay [2] worked out at 1.8 µM.

`C=CC(=O)Nc1cccc(Oc2nc(Nc3ccc(N4CCN(C)CC4)cc3)nc3ccsc23)c1` [OLMUTINIB] yielded an IC50 in assay [1] of 0.001 µM.

Take `C=CC(=O)N1CCC(Nc2ncnc(N)c2C(=O)c2ccc(Oc3ccccc3)cc2)CC1`: the IC50 in assay [2] was found to be 1.07 µM.

With `C=CC(=O)N1CCN(c2ncnc(N)c2C(=O)c2ccc(OCC)cc2)CC1`, in assay [2], the IC50 amounted to 1.32 µM.
